Paper PMC11432330, “Novel Drug-like HsrA Inhibitors Exhibit Potent Narrow-Spectrum Antimicrobial Activities against Helicobacter pylori” (International Journal of Molecular Sciences, 2024)

Target: C. jejuni response regulator CosR (Campylobacter jejuni, UniProt Q0PBF4)
Experiment: Isothermal titration calorimetry (ITC) with CosR
Type: binding
Experimental: Molecular interactions of the selected ligands with proteins HsrA or CosR were studied by isothermal titration calorimetry (ITC), as previously described. Titrations were assessed in a high-sensitivity MicroCal Auto-iTC200 calorimeter (Malvern Panalytical, Malvern, UK). Experiments were carried out at 25 °C in freshly prepared buffer containing 50 mM Tris-HCl [pH 8], 150 mM NaCl, 10% glycerol, and 1% DMSO. A 20 µM solution of protein was located in the calorimetric cell. Then, a sequence of 19 injections of 2 µL volume each with a 200 µM solution of the corresponding ligand was programmed with a time spacing of 150 s, a stirring speed of 750 rpm, and a reference power of 10 µcal/s in the sample cell. Thermodynamic properties such as binding stoichiometry, dissociation constants, and binding enthalpies were calculated by nonlinear least-squares regression data analysis using Origin 7.0 software.

Sequence of C. jejuni response regulator CosR (Q0PBF4 entry or part of it): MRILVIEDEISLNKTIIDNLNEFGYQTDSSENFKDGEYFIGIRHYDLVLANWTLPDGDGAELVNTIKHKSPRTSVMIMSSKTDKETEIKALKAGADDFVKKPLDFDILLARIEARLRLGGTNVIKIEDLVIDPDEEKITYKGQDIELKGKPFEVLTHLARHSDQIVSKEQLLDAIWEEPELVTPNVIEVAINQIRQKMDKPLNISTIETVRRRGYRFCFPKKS

NC(=NOC(=O)Nc1ccc(Cl)cc1)c1csc([N+](=O)[O-])c1 [Ligand V, N′-{[(4-chloroanilino)carbonyl]}oxy-5-nitrothiophene-3-carboximidamide]
ΔG (absolute error 0.1): -6.2 kcal/mol
ΔH (absolute error 0.4): -0.9 kcal/mol
Kd (relative error 15%): 26 µM
